Reference: patent US7932262B2 (Novartis AG, priority 2006, dated 2011)

Key:
PDK1 kinase = target: T1, PDK1 kinase (Homo sapiens, UniProt O15530); test: PDK1 Kinase Alpha Screen Assay; assay type: biochemical; conditions: read-out: PDK1 IC50
T1 sequence (O15530 1-556): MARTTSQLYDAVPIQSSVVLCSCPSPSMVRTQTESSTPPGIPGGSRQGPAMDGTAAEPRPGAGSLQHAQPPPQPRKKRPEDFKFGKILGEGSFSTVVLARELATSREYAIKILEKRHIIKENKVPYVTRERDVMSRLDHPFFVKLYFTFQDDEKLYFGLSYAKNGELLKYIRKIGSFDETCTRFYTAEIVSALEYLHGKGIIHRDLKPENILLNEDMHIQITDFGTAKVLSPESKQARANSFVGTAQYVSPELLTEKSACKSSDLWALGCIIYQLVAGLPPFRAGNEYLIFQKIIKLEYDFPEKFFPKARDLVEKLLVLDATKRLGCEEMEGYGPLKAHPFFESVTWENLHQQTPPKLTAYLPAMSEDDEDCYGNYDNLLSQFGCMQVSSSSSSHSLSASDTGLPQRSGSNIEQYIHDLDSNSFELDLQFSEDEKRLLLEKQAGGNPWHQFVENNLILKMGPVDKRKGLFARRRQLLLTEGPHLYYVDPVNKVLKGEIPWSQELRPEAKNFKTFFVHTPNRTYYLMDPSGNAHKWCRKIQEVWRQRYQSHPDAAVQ
How it was run: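 PDK1, 10 uM ATP, 50 nM biotin-PDK1-4 peptide; 50 mM Tris pH 7.5, 10 mM MgCl2, 0.1% BSA, 0.01% Tween-20, 2 mM DTT, 2.5% DMSO; 3-18 h. EDTA stop; AlphaScreen, phospho-Ser/Thr antibody, overnight RT.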

A2780 cells = test: Cell Proliferation Assay (Cell Titer Glo), A2780; assay type: cell-based; conditions: Homo sapiens, 72 h; A2780 cells, 3 days incubation; read-out: CPEC50 A2780
How it was run: (§1)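 Following a 3-day compound exposure (37° C., 5% CO2) of A2780 or PC3MM cells plated at 1000 per well, viability was measured by Cell Titer Glo luminescence in fresh medium, read 10 min after reagent addition.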

PC-3 cells = test: Cell Proliferation Assay (Cell Titer Glo), PC-3 cell line; assay type: cell-based; conditions: Homo sapiens, PC-3, 72 h, PC-3 cells, 3 days incubation; read-out: CP EC50 PC3
How it was run: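 Cell Titer Glo luminescence, read after fresh medium replaced the dosing medium, gave viability of PC-3 cells plated at 1000 cells/well. Compounds, 1:3 serially diluted in DMSO at 500× and then in medium, were added after 3-5 h adhesion and incubated 3 days at 37° C.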

PC3MM cells = test: Cell Proliferation Assay (Cell Titer Glo), PC3MM; assay type: cell-based; conditions: 72 h; PC3MM cells, 3 days incubation; read-out: CP EC50 PC3MM
How it was run: as §1

[1] = system: pAkt308 (phosphorylation of Akt at T308) in PC-3 cells; test: pAkt T308 ECL Assay in PC-3 cells; assay type: cell-based; conditions: Homo sapiens, 6 h, six hours with compound, read-out: PAKT308 PC3 IC50
Protocol: VI. The pAkt^T308 ECL Assay Protocol
On Day 1, PC-3 cells were seeded at 15,000 cells/well in 100 μL/well ([…]) growth media into black-walled, clear bottom, poly-L-lysine coated plates. The cells were incubated overnight in a 37° C., 5% CO2 incubator.
On Day 2, a MSD ECL plate was blocked for two hours with 150 μL per well of 3% MSD blocker A.
Test compounds were diluted to 500× in DMSO and then were subjected to further serial dilution using a BioMek 2000 instrument. DMSO diluted compounds were then diluted into growth media and then added to the cell plates.
The cell plates incubated with compounds for six hours in a 37° C., 5% CO2 incubator after which the growth medium was removed and 55 μl of MSD lysis buffer was added to cell plates on ice. The plates were lysed on ice for five minutes followed by 15 minutes of vigorous shaking on a plate shaker at 4° C. The blocked MSD assay plates were washed twice with 1×MSD wash buffer followed by the addition of cell lysate as follows: 30 μl of cell lysate was added to the pAkt308 plates and 13 μl of lysate+12 μl lysis buffer was added to the tAkt plates. The plates were then sealed and shaken at 4° C. overnight.
On Day 3, the MSD plates were washed four times with 1×MSD wash buffer then, 25 μl/well of MSD SULFO-TAG antibodies diluted to 10 nM final concentration in 1% blocker. A buffer was added to the antibody diluent which was added to assay plates. The plates were then sealed and incubated at RT for 1.5 hour. The plates were then washed twice with 1×MSD wash buffer followed by the addition of 150 μl/well of 1.5×MSD read buffer. The plates were read immediately after the addition of read buffer using a Trilux instrument. […]

CN1CCC(Oc2ccc3cnc(Nc4ccc(S(N)(=O)=O)cc4)nc3c2)CC1 [Compound 52, 4-[7-(1-Methyl-piperidin 4-yloxy)-quinazolin-2-ylamino]-benzenesulfonamide]
< 5 µM: IC50 (PDK1 kinase) | EC50 (A2780 cells) | EC50 (PC-3 cells) | EC50 (PC3MM cells) | IC50 [1]

NS(=O)(=O)c1ccc(Nc2ncc3ccc(-c4ccccc4)c(OC4CCNCC4)c3n2)cc1 [Compound 67, 4-[7-Phenyl-8-(piperidin-4-yloxy)-quinazolin-2-ylamino]-benzenesulfonamide]
< 5 µM: IC50 (PDK1 kinase) | EC50 (A2780 cells) | EC50 (PC-3 cells) | IC50 [1]

CN1C2CCC1CC(Oc1cccc3cnc(Nc4ccc(S(N)(=O)=O)cc4)nc13)C2 (centres unmarked) [Compound 41, 4-[8-(8-Methyl-8-aza-bicyclo[3.2.1]oct-3-yloxy)-quinazolin-2-ylamino]-benzenesulfonamide]
< 5 µM: IC50 (PDK1 kinase) | EC50 (A2780 cells) | EC50 (PC-3 cells) | IC50 [1]

CN1CCC(Oc2ccc3cnc(Nc4ccc(S(=O)(=O)N5CCOCC5)cc4)nc3c2)CC1 [Compound 53, [7-(1-Methyl-piperidin-4-yloxy)-quinazolin-2-yl]-[4-(morpholine-4-sulfonyl)-phenyl]-amine]
< 5 µM: IC50 (PDK1 kinase) | EC50 (A2780 cells) | EC50 (PC-3 cells) | IC50 [1]
